Test results reported in patent US20260108602A1, “METHODS AND SYSTEMS FOR IMPROVING ANTI-CANCER THERAPIES” (Osasuna Therapeutics SA, priority 2023, published 2026).

Legend:
[1] = test system: Dbi^+/+ and Dbi^−/− HCC cells; assay: CCK-8 viability assay of primary HCC cells treated with ferroptosis inducers; type: cell-based, mouse; details: ferroptosis inducer combined with Dbi knockout; normalized to respective Dbi^+/+ and Dbi^−/− vehicle controls
Procedure: (FIG. 26A-FIG. 26D). Groups receiving ferroptosis inducers were normalized to their respective Dbi^+/+ and Dbi^−/− vehicle (Veh) treated control groups.
Proliferation assays. CCK-8 assays were performed with a commercial kit. For colony formation assays, HEPG-2 (NC, SH1, SH2, and SH3, 1000 cells/well), HUH-7 (NC, SH1, SH2, and SH3, 1000 cells/well) and Hep55.1C (NC, SH1, SH2, and SH3, 500 cells/well) cancer cells were seeded into 6-well plates in 2 mL medium with 10% FBS. The medium was changed every 3 days until control (NC) wells approached confluency, within 7-14 days. After gently washed twice with PBS, colonies were fixed with 4% paraformaldehyde for 30 min and stained with 0.2% crystal violet for 30 min at room temperature. The colony number (colonies >0.3 mm) was counted with isoftware. All experiments were performed in triplicates.
Six-well plates were coated with 2% FBS/PBS+0.1% laminin. HCC tumors were isolated from NASH-driven mouse model (WD+D-fructose+D-glucose in water+CCl4 administered to DBI^+/+ or DBI^−/− mice) and washed twice with ice-cold PBS. The tumor tissues were transferred to 10 cm plates, minced completely with a razor blade and then transferred to 15 mL falcon tubes. Ten mL 2 mg/mL collagenase dispase solution was added, the cells were incubated rotating for 30 min at 37° C. and were filtered through 100 μm meshes into 50 mL falcon tubes, before addition of 10 mL 2% FBS/PBS to wash the tissues. The samples were then filtered sequentially through 70 μm and 40 μm strainers, brought up to 15 mL volume and centrifuged again (room temperature (RT), 1000 rpm, 2 min). The cells were then resuspended in 5 mL of 1×red blood cell (RBC) lysis buffer, incubated on ice for 10 min before addition of 5 mL 2% FBS/PBS, followed by spinning (RT, 1000 rpm, 2 min). The washing step was repeated 2 times, and the cells were resuspended in culture medium (500 mL DMEM+10% FBS+1×ITS+20 μl EGF (1 μg/μl)+20 μl IGFII (0.2 μg/μl)), before seeding into 6-well plates.

[2] = test system: TC1 NSCLC cells; assay: Orthotopic TC1 Luc lung cancer model (bioluminescence imaging); type: in vivo, C57BL/6J mice; details: corticosterone in drinking water + OXA + anti-PD1
Procedure: TC-1—To establish the orthotopic TC1 model, wild type TC1 Luc cells (5×10^5 in 100 μL PBS) were intravenously injected to wild type C57BL/6J mice. Tumor incidence and development were monitored by in vivo photonic imaging of tumor cells' luciferase activity. About 7 days after injection, tumor incidence in the lung was detected at an exposure time of 4 min, and mice were randomized according to quantified tumor sizes and assigned to different groups for treatment as described below. Anti-DBI or isotype control antibody was intraperitoneally (i.p.) injected on day 9, at the dose of 2.5 mg/kg body weight, and on day 10, then maintained every other day until day 18. […]
Next, the positive effects of anti-ACBP/DBI mAb on chemo-immunotherapy in another model, namely non-small cell lung cancers (NSCLC) were confirmed. TC1 NSCLC cells expressing luciferase injected intravenously (i.v.) into syngeneic immunocompetent C57BL/6J mice form orthotopic lung cancers that can be monitored by bioluminescence imaging. […] From day 9 post-inoculation of TC1 cells, NSCLC-bearing mice were periodically i.p. injected with anti-ACBP/DBI mAb (or an isotype control mAb) and then were treated on day 11 post-inoculation with OXA (i.p. once) and anti-PD1 mAb (injected i.p. on days 19, 23 and 27 post-TC1 injection) (FIG. 4A) and tumor progression was determined by bioluminescence imaging (FIG. 4B). […]

[3] = test system: MCA205 fibrosarcoma cells; assay: Anti-tumor vaccination assay (MTX-treated MCA205 cells, rechallenge with live cells); type: in vivo, C57BL/6J mice; details: CORT in drinking water + vaccination with MTX-treated MCA205 cells
Procedure: Wild-type MCA205 cells were treated with MTX (4 μM) for 24 h. Then supernatants and detached cells were collected and centrifuged, and the pellet was further washed with ice-cold PBS. 2×10^6 cells in 100 μl PBS were s.c. injected to the left flank of immunocompetent C57BL/6J mice (day −7). PBS was injected as a negative control. One week later, all mice were confirmed tumor-free in the vaccination flank and living cancer cells (2×10^5 cells per mouse for MCA205 cells) were injected in the right flank of vaccinated mice (day 0). Corticosterone and neutralizing anti-DBI monoclonal antibody were continually administrated throughout the experiment. Tumor growth was regularly monitored for the following weeks.
After the first week of treatment, the animals were subcutaneously (s.c.) injected with mitoxantrone (MTX)-treated MCA205 fibrosarcoma cells, knowing that MTX-induces ICD and that MTX-treated cancer cells induce a protective anti-cancer immune response that suppresses, delays or reduces the growth of tumors that would grow in naïve mice after injection of live, untreated MCA205 fibrosarcoma cell. [Panaretakis T. et al., Mechanisms of pre-apoptotic calreticulin exposure in immunogenic cell death, EMNO J, 2009, 28 (5), pp. 578-590.]

[4] = test system: E0771 breast cancer cells; assay: Subcutaneous E0771 breast cancer model with anti-PD1 immunotherapy
Procedure: E0771—For the establishment of syngeneic solid tumors, C57BL/6J mice (8-weeks-old female) were injected subcutaneously (s.c.) with 5×10^5 wild type E0771 in the right lower quadrant of the abdomen alongside of the mammary gland (close to the orthotopic site). Approximately 7 days after injection, tumor growth was monitored with an electronic caliper and mice were assigned to different groups. From day 8, mice were treated with a neutralizing anti-DBI monoclonal antibody (5 mg/kg) or its isotype (IgG2A, 5 mg/kg) every two days. At the same time, free corticosterone (Sigma-Aldrich) was added to the drinking water (0.1 mg/ml; water/ethanol 0.66%). Anti-PD1 monoclonal antibody (αPD1; 10 mg/kg) was injected at days 12, 15, 18 and 21. Tumor growth was monitored routinely with an electronic caliper.
For tumor growth experiments, longitudinal analyses were performed by linear mixed effect modeling of tumor sizes. […]
C57BL/6J mice were inoculated subcutaneously (s.c.) with syngeneic E0771 breast cancer cells. Six days later treatment of corticosterone (CORT or as a control with vehicle only, 0.66% ethanol, which was administered in the drinking water) and anti-ACBP/DBI mAb (or the isotype control mAb, both injected i.p. three times per week) was initiated and tumor growth was monitored over several weeks. […]

| SMILES | viability (CCK-8) [1] | chemo-immunotherapeutic effect (tumor size by bioluminescence) [2] | vaccination effect [3] | tumor growth (effect of anti-PD1) ([4]; CORT in drinking water + anti-PD1) | animal survival (efficacy of anti-PD1) ([4]; corticotherapy + anti-PD1) |
| --- | --- | --- | --- | --- | --- |
| CC(C)Oc1ccc(C(=O)Cn2ccnc2)cc1-n1c(CN2CCN(C(=O)COc3ccc(Cl)cc3)CC2)nc2ccccc2c1=O [IKE, imidazole ketone erastin] | particularly vulnerable to losing their viability |  |  |  |  |
| CCCCC/C=C\C/C=C\CCCCCCCC(=O)O [LA, linoleic acid] | particularly vulnerable to losing their viability |  |  |  |  |
| COC(=O)c1ccc([C@@H]2c3[nH]c4ccccc4c3C[C@@H](C(=O)OC)N2C(=O)CCl)cc1 [RSL3] | particularly vulnerable to losing their viability |  |  |  |  |
| C[C@]12C[C@H](O)[C@H]3[C@@H](CCC4=CC(=O)CC[C@@]43C)[C@@H]1CC[C@@H]2C(=O)CO [corticosterone] |  | strongly interfered | reduced this vaccination effect | lost | loss |
